Laboratory results from patent publication US9670159B2, “Pharmaceutical composition of a papillomavirus inhibitor” (AVIRAGEN THERAPEUTICS, INC., priority 2012, dated 2017).

Key:
[1] = Solubility of the potassium salt in comparison with the hydrochloride; type: physicochemical; conditions: potassium salt in comparison with its hydrochloride
[2] = Percutaneous absorption in vitro on human skin mounted on a Franz cell; type: in vitro ADME; conditions: 8 hours of diffusion
Protocol: The percutaneous absorption of compound (Ia) from pharmaceutical composition (g) was studied after the application of a dose of 10 mg/cm^2 on human skin mounted on a Franz cell. This study was carried out by comparing percutaneous absorption on healthy skin and on delaminated skin, as a model of the weak keratinization of the anogenital region.
After 8 or 24 hours of exposure to pharmaceutical composition (g), the quantity of compound (Ia) present in each skin layer (stratum corneum, epidermis, dermis) and that having crossed the skin (receiving fluid) is quantified by HPLC.
The stratum corneum of the non-delaminated skin samples is removed from the epidermis by peeling with adhesive. The latter is applied to the skin surface under constant and controlled pressure.

[3] = test system: E1 and E2 protein-dependent viral replication of HPV11; assay: Replication test (replicon reporter vector, luciferase); type: cell-based; conditions: Homo sapiens, read-out: IC50 on E1 and E2 protein-dependent viral replication of HPV11 in cells
Text: (§1) In the present invention two types of tests are used to study the biological activity of compounds against papillomavirus. A first test (“E1/E2 interaction test”) evaluates the interaction between the E1 and E2 proteins of HPV (human papillomavirus) in human cells. A second test (“replication test”) measures the replication of viral genomic DNA in human cells.
The test of replication of viral genomic DNA is based on the co-transfection of a reporter vector containing an HPV origin of replication (ori) and expression vectors coding the E1 and E2 proteins of HPV. It makes it possible to follow the set of biological functions of E1 and E2 required for replication of the genome of the HPVs. […]
Compound (Ia), either in solution or in pharmaceutical compositions (a), (d), (f) and (g), was also evaluated for its inhibitory activity on the E1- and E2-dependent viral replication of HPV11/HPV6 in human cell lines derived from renal epithelial cells or cervical carcinoma cells. Various doses (0.25-40 μM) were incubated in the cell medium for 2 to 6 days after transfection, and luciferase activity was measured using a luminometer to determine the IC50 of the compound on the replication of the genome of the HPVs.

[4] = molecular target: interaction between the E1 and E2 proteins of HPV11/HPV6 (Human papillomavirus 11, UniProt P04014+P04015); assay: E1/E2 interaction test (luciferase reporter, mammalian two-hybrid type); type: cell-based
Text: as §1
The test of interaction between E1 and E2 is similar to the tests often called “mammalian two-hybrid” tests. It is based on co-transfection of a reporter vector containing DNA binding sites for the E2 protein of HPV in the promoter controlling expression of the reporter gene, and of expression vectors coding the E1 and E2 proteins of HPV, the E1 protein being fused to the VP16 transactivation domain. […]
Compound (Ia), either in solution or in pharmaceutical compositions (a), (d), (f) and (g), was evaluated for its inhibitory activity on the interaction between the E1 and E2 proteins of HPV11/HPV6 in human cell lines derived from renal epithelial cells or cervical carcinoma cells. Various doses (0.25-40 μM) were incubated in the cell medium for 2 days after transfection, and luciferase activity was measured to determine the IC50 of the compound on the interaction between the E1 and E2 proteins of the HPVs.

interaction between the E1 and E2 proteins of HPV11/HPV6, sequence (P04014 whole entry): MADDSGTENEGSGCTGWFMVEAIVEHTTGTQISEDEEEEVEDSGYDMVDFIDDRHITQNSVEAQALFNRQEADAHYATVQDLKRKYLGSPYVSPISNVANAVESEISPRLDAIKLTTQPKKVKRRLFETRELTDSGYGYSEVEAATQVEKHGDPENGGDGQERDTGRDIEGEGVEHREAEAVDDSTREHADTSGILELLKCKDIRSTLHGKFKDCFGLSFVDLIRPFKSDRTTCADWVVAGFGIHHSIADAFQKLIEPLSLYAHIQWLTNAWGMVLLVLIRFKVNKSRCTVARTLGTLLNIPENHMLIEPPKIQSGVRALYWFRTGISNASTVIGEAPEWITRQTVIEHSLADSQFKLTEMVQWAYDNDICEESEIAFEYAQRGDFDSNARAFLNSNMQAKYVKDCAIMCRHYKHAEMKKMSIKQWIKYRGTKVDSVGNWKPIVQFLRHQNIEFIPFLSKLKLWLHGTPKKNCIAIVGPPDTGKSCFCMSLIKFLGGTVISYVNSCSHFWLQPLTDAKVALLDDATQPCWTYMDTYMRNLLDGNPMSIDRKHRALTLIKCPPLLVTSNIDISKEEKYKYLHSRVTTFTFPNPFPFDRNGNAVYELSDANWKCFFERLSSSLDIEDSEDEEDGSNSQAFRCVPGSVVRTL
interaction between the E1 and E2 proteins of HPV11/HPV6, sequence (P04015 whole entry): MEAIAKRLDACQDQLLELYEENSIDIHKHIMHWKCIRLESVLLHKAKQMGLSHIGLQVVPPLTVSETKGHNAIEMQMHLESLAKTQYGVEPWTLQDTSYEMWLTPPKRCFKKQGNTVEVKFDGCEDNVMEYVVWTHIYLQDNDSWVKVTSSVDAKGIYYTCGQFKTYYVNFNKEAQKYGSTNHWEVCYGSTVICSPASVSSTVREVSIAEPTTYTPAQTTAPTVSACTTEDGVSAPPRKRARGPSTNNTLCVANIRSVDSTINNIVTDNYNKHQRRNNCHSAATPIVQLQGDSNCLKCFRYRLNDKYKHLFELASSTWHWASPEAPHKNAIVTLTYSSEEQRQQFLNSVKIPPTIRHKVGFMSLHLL

Compound: COc1cc(CC(=O)NN(c2ccc(Cc3ccccc3)cc2)c2c(C)cccc2N2CCCCC2)c(Br)cc1C(=O)O [Compound (Ia), 4-[N′-(4-benzyl-phenyl)-N′-(2-methyl-6-piperidin-1-yl-phenyl)-hydrazinocarbonylmethyl]-5-bromo-2-methoxy-benzoic acid]
- solubility [1]: increases the solubility
- local concentration in the skin relative to the IC50 measured in cellulo ([2]; delaminated skin): 1000 times
- local concentration in the skin relative to the IC50 measured in cellulo ([2]; healthy skin): 100 times
- IC50 [3]: ~1000 nM
- IC50 [4]: ~1000 nM
